Reference: publication PMC5175396, “Cytotoxicity of Plumbagin, Rapanone and 12 other naturally occurring Quinones from Kenyan Flora towards human carcinoma cells” (BMC Pharmacology & Toxicology, 2016)

What was measured:
[1] = test system: HepG2 hepatocarcinoma cells; assay: Neutral red (NR) uptake cytotoxicity assay, HepG2; assay type: cell-based, human; settings: for IC50: Homo sapiens, HepG2, neutral red assay, 72 h incubation, read-out: IC50 HepG2; for selectivity index HepG2: IC50 in CRL2120 normal fibroblasts divided by IC50 in HepG2
Text: Six human cancer cell lines and one normal cell line were used in this study. They included A549 human non-small cell lung cancer (NSCLC) cell line, obtained from the Institute for Fermentation, Osaka (IFO, Japan) and provided by Prof. Dr. Tansu Koparal (Anadolu University, Eskisehir, Turkey), SPC212 human mesothelioma cell line obtained from American Type Culture Collection (ATCC) and provided by Dr. Asuman Demiroğlu Zergeroğlu (Gebze Technical University, Kocaeli, Turkey), DLD-1 colorectal adenocarcinoma cell lines obtained from ATCC (CCL-221), Caco2 colorectal adenocarcinoma cells (ATCC, HTB-37) obtained from the ŞAP Institute of Turkey (Ankara), HepG2 hepatocarcinoma cells (ATCC, HB-8065) and MCF-7 breast adenocarcinoma cells (ATCC, HTB-22) were provided by Prof. Dr. Tansu Koparal (Anadolu University, Eskisehir, Turkey). The normal CRL2120 human skin fibroblasts were obtained from ATCC [CCD1094Sk (ATCC, CRL-2120)]. The cells were maintained as a monolayer in DMEM medium (Sigma-aldrich, Munich, Germany) medium supplemented with 10% fetal calf serum and 1% penicillin (100 U/mL)-streptomycin (100 μg/mL) in a humidified 5% CO2 atmosphere at 37 °C.
The cytotoxicity of samples was performed by NR uptake assay as previously described. This method is based on the ability of viable cells to incorporate and bind the supravital dye NR in the lysosomes. The procedure is cheaper and more sensitive than other cytotoxicity tests. […] Briefly, cells were detached by treatment with 0.25% trypsin/EDTA (Invitrogen) and an aliquot of 1 × 10^4 cells was placed in each well of a 96-well cell culture plate […]. The cells were allowed to attach overnight and subsequently treated with different concentrations of the 14 compounds. Each of the studied samples was immediately added in varying concentrations in additional 100 μL of culture medium to obtain a total volume of […]/well. After 72 h incubation in humidified 5% CO2 atmosphere at 37 °C, the medium was removed and 200 μL fresh medium containing 50 μg/mL NR was added to each well and incubation continued for an additional 3 h at 37 °C in 5% CO2 atmosphere. The dye medium was then removed and each well was then washed rapidly with 200 μL phosphate buffer saline (PBS) followed by addition of 200 μL of acetic acid-water-ethanol in water (1:49:50). The plates were kept for 15 min at room temperature to extract the dye and then shaken for a few minutes on a GFL 3012 shaker (Gesellschaft für Labortechnik mbH, Burgwedel, Germany). Absorbance was measured on ELx 808 Ultra Microplate Reader (Biotek) equipped with a 540 nm filter. Each assay was done at least three times, with three replicates each. The viability was evaluated based on a comparison with untreated cells. The IC50 values represent the sample’s concentrations required to inhibit 50% of cell proliferation and were calculated from a calibration curve by linear regression using Microsoft Excel.

[2] = test system: caspase 3/7 in MCF-7 cells; assay: Caspase-Glo 3/7 assay; assay type: cell-based, human; settings: IC50 and 2-fold IC50, 6 h (data not shown)
Method: Caspases activity in MCF-7 cells was detected using Caspase-Glo 3/7 and Caspase-Glo 9 Assay kits (Promega, Mannheim, Germany) as previously reported. […] Luminescence was measured using an BioTek Synergy™ HT multi-detection microplate reader. Caspase activity was expressed as percentage of the untreated control.

CC1=CC(=O)c2c(O)cccc2C1=O [Compound 4, 5-hydroxy-2-methyl-1,4-naphthalenedione]
IC50 [1]: 1.01 ± 0.08 µM | selectivity index HepG2 [1]: 66.99 | activity of caspase 3/7 [2]: no modification

CCCCCCCCCCCCCC1=C(O)C(=O)C=C(O)C1=O [Compound 9, 2,5-dihydroxy-3-tridecyl-2,5-cyclohexadiene-1,4-dione]
IC50 [1]: 32.7 ± 0.61 µM | selectivity index HepG2 [1]: 2.91 | activity of caspase 3/7 [2]: no modification
